Patent publication US20110195900A1, “PEPTIDIC PTH RECEPTOR AGONISTS” (FERRING B.V., priority 2008, published 2011)
Where two headings read alike, the source gives them in different places. Non-standard residues stand in square brackets, D forms with d. Residues, ends and D or L forms follow the SMILES beside them. 1Nal = N[C@@H](Cc1cccc2ccccc12)C(=O)O; β3hI = CC[C@H](C)[C@H](N)CC(=O)O; β3hE = N[C@@H](CCC(=O)O)CC(=O)O; Nle = CCCC[C@H](N)C(=O)O; Aib = CC(C)(N)C(=O)O; βAla = NCCC(=O)O

Target: T1, human PTH-1 receptor (Homo sapiens, UniProt Q03431)
T1 construct: expressed in transfected cells; host or cells: HEK-293
T1 sequence (Q03431 27-593): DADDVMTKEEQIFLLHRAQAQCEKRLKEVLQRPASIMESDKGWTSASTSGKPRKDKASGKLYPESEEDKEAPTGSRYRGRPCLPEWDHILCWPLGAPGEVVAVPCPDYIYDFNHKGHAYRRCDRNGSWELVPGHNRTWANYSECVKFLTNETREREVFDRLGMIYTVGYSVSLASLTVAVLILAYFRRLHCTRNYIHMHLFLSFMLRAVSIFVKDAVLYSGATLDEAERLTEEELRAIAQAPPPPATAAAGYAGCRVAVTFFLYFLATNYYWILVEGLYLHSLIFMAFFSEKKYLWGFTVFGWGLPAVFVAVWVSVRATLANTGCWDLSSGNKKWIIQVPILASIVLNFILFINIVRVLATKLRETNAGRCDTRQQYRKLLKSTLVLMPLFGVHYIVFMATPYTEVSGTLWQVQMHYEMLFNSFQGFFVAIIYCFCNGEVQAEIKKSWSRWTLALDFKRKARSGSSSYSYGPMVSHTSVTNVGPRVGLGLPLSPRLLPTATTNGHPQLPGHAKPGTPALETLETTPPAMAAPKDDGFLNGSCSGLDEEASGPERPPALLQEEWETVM
Test: Reporter gene assay (CRE-luciferase) for agonist activity in transiently transfected HEK-293 cells
Format: cell-based
Settings: for hPTHR-2/hPTHR-1: ratio of EC50 values, selectivity for hPTH-1 receptor over hPTH-2 receptor
Experimental: Agonist activity of compounds on the human PTH-1 receptor was determined in a reporter gene assay by transiently transfecting HEK-293 cells with plasmids encoding human PTH-1 receptor under control of the SV40 promoter and a luciferase reporter gene under control of cAMP responsive elements (CRE). See Himmler et al, J. Recept. Res. 13 (1993) 79-94, for further guidance on this assay. Transfected cells were exposed to serial dilutions of compounds for 4-5 hours followed by lysis of cells, determination of luciferase activity, and determination of compound efficacies and EC50 values through non-linear regression.
PTH (1-34) was used as an internal control in each experiment and compounds were tested in at least three independent experiments. To determine selectivity, compounds were tested in luciferase-based transcriptional reporter gene assays expressing the human PTH-2 receptor.

Row | Structure (SMILES) | EC50 | hPTHR-2/hPTHR-1 (Table 3) | EC50 (Table 3, HEK-293 cells, CRE-luciferase, 4-5 hours exposure, read-out: hPTHR-1 EC50)
1 | CCCC[C@H](NC(=O)[C@H](CC(C)C)NC(=O)[C@H](CCC(N)=O)NC(=O)[C@@H](NC(=O)[C@H](CCC(=O)O)NC(=O)[C@H](CO)NC(=O)[C@@H](NC(=O)[C@@H](N)CO)C(C)C)[C@@H](C)CC)C(=O)N[C@@H](Cc1c[nH]cn1)C(=O)N[C@@H](CC(N)=O)C(=O)N[C@@H](CC(C)C)C(=O)NC(C)(C)C(=O)NC(C)(C)C(=O)N[C@@H](Cc1c[nH]cn1)C(=O)N[C@@H](CC(C)C)C(=O)N[C@@H](CC(N)=O)C(=O)N[C@@H](CO)C(=O)N[C@H](CC(=O)N[C@@H](CCC(=O)O)C(=O)N[C@@H](CCCNC(=N)N)C(=O)N[C@H](C(=O)N[C@@H](CCC(=O)O)C(=O)N[C@@H](Cc1cccc2ccccc12)C(=O)N[C@@H](CC(C)C)C(=O)N[C@@H](CCCNC(=N)N)C(=O)N[C@@H](CCCCN)C(=O)N[C@@H](CC(C)C)C(=O)N[C@@H](CC(C)C)C(=O)N[C@@H](CCC(N)=O)C(=O)N[C@@H](CC(=O)O)C(=O)N[C@H](C(=O)N[C@@H](Cc1c[nH]cn1)C(=O)N[C@@H](CC(N)=O)C(=O)N[C@@H](Cc1ccccc1)C(N)=O)C(C)C)C(C)C)[C@@H](C)CC [SEQ ID NO: 31, [Nle^8, Aib^12,13, β-hIle^18,1-Nal^23, Leu^27] hPTH (1-34)-NH2] (H-SVSEIQL[Nle]HNL[Aib][Aib]HLNS[β3hI]ERVE[1Nal]LRKLLQDVHNF-NH2; N-terminus assumed) | 250 pM | 138 | 
2 | CCCC[C@H](NC(=O)[C@H](CO)NC(=O)[C@H](CC(N)=O)NC(=O)[C@H](CC(C)C)NC(=O)[C@H](Cc1c[nH]cn1)NC(=O)[C@H](CCCCN)NC(=O)CNC(=O)[C@H](CC(C)C)NC(=O)[C@H](CC(N)=O)NC(=O)[C@H](Cc1c[nH]cn1)NC(=O)[C@H](CCCC)NC(=O)[C@H](CC(C)C)NC(=O)[C@H](CCC(N)=O)NC(=O)[C@@H](NC(=O)[C@H](CCC(=O)O)NC(=O)[C@H](CO)NC(=O)[C@@H](NC(=O)[C@@H](N)CO)C(C)C)[C@@H](C)CC)C(=O)NCCC(=O)N[C@@H](CCCNC(=N)N)C(=O)N[C@H](C(=O)N[C@@H](CCC(=O)O)C(=O)N[C@@H](Cc1cccc2ccccc12)C(=O)N[C@@H](CC(C)C)C(=O)N[C@@H](CCCNC(=N)N)C(=O)N[C@@H](CCCCN)C(=O)N[C@@H](CCCCN)C(=O)N[C@@H](CC(C)C)C(=O)N[C@@H](CCC(N)=O)C(=O)N[C@@H](CC(=O)O)C(=O)N[C@H](C(=O)N[C@@H](Cc1c[nH]cn1)C(=O)N[C@@H](CC(N)=O)C(=O)N[C@@H](Cc1ccccc1)C(N)=O)C(C)C)C(C)C [SEQ ID NO: 7, [Nle^8,18, β-Ala^19,1-Nal^23] hPTH (1-34)-NH2] (H-SVSEIQL[Nle]HNLGKHLNS[Nle][βAla]RVE[1Nal]LRKKLQDVHNF-NH2) |  | 52 | 210 pM
3 | CCCC[C@H](NC(=O)[C@H](CO)NC(=O)[C@H](CC(N)=O)NC(=O)[C@H](CC(C)C)NC(=O)[C@H](Cc1c[nH]cn1)NC(=O)[C@H](CCCCN)NC(=O)CNC(=O)[C@H](CC(C)C)NC(=O)[C@H](CC(N)=O)NC(=O)[C@H](Cc1c[nH]cn1)NC(=O)[C@H](CCCC)NC(=O)[C@H](CC(C)C)NC(=O)[C@H](CCC(N)=O)NC(=O)[C@@H](NC(=O)[C@H](CCC(=O)O)NC(=O)[C@H](CO)NC(=O)[C@@H](NC(=O)[C@@H](N)CO)C(C)C)[C@@H](C)CC)C(=O)N[C@@H](CCC(=O)O)CC(=O)N[C@@H](CCCNC(=N)N)C(=O)N[C@H](C(=O)N[C@@H](CCC(=O)O)C(=O)N[C@@H](Cc1cccc2ccccc12)C(=O)N[C@@H](CC(C)C)C(=O)N[C@@H](CCCNC(=N)N)C(=O)N[C@@H](CCCCN)C(=O)N[C@@H](CC(C)C)C(=O)N[C@@H](CC(C)C)C(=O)N[C@@H](CCC(N)=O)C(=O)N[C@@H](CC(=O)O)C(=O)N[C@H](C(=O)N[C@@H](Cc1c[nH]cn1)C(=O)N[C@@H](CC(N)=O)C(=O)N[C@@H](Cc1ccccc1)C(N)=O)C(C)C)C(C)C [SEQ ID NO: 20, [Nle^8,18, β-hGlu^19,1-Nal^23, Leu^27] hPTH (1-34)-NH2] (H-SVSEIQL[Nle]HNLGKHLNS[Nle][β3hE]RVE[1Nal]LRKLLQDVHNF-NH2; N-terminus assumed) |  | 91 | 
4 | CCCC[C@H](NC(=O)[C@H](CC(C)C)NC(=O)[C@H](CCC(N)=O)NC(=O)[C@@H](NC(=O)[C@H](CCC(=O)O)NC(=O)[C@H](CO)NC(=O)[C@@H](NC(=O)[C@@H](N)CO)C(C)C)[C@@H](C)CC)C(=O)N[C@@H](Cc1c[nH]cn1)C(=O)N[C@@H](CC(N)=O)C(=O)N[C@@H](CC(C)C)C(=O)NCC(=O)N[C@@H](CCCCN)C(=O)N[C@@H](Cc1c[nH]cn1)C(=O)N[C@@H](CC(C)C)C(=O)N[C@@H](CC(N)=O)C(=O)N[C@@H](CO)C(=O)N[C@H](CC(=O)N[C@@H](CCC(=O)O)C(=O)N[C@@H](CCCNC(=N)N)C(=O)N[C@H](C(=O)N[C@@H](CCC(=O)O)C(=O)N[C@@H](Cc1cccc2ccccc12)C(=O)N[C@@H](CC(C)C)C(=O)N[C@@H](CCCNC(=N)N)C(=O)N[C@@H](CCCCN)C(=O)N[C@@H](CC(C)C)C(=O)N[C@@H](CC(C)C)C(=O)N[C@@H](CCC(N)=O)C(=O)N[C@@H](CO)C(=O)N[C@H](C(=O)N[C@@H](Cc1c[nH]cn1)C(=O)N[C@@H](CC(N)=O)C(=O)N[C@@H](Cc1ccccc1)C(N)=O)C(C)C)C(C)C)[C@@H](C)CC [SEQ ID NO: 26, [Nle^8, β-hIle^18,1-Nal^23, Leu^27, Ser^30] hPTH (1-34)-NH2] (H-SVSEIQL[Nle]HNLGKHLNS[β3hI]ERVE[1Nal]LRKLLQSVHNF-NH2) | 190 pM | 98 | 
5 | CCCC[C@H](NC(=O)[C@H](CC(C)C)NC(=O)[C@H](CCC(N)=O)NC(=O)[C@@H](NC(=O)[C@H](CCC(=O)O)NC(=O)[C@H](CO)NC(=O)[C@@H](NC(=O)[C@@H](N)CO)C(C)C)[C@@H](C)CC)C(=O)N[C@@H](Cc1c[nH]cn1)C(=O)N[C@@H](CC(N)=O)C(=O)N[C@@H](CC(C)C)C(=O)NCC(=O)NC(C)(C)C(=O)N[C@@H](Cc1c[nH]cn1)C(=O)N[C@@H](CC(C)C)C(=O)N[C@@H](CC(N)=O)C(=O)N[C@@H](CO)C(=O)N[C@H](CC(=O)N[C@@H](CCC(=O)O)C(=O)N[C@@H](CCCNC(=N)N)C(=O)N[C@H](C(=O)N[C@@H](CCC(=O)O)C(=O)N[C@@H](Cc1cccc2ccccc12)C(=O)N[C@@H](CC(C)C)C(=O)N[C@@H](CCCNC(=N)N)C(=O)N[C@@H](CCCCN)C(=O)N[C@@H](CC(C)C)C(=O)N[C@@H](CC(C)C)C(=O)N[C@@H](CCC(N)=O)C(=O)N[C@@H](CC(=O)O)C(=O)N[C@H](C(=O)N[C@@H](Cc1c[nH]cn1)C(=O)N[C@@H](CC(N)=O)C(=O)N[C@@H](Cc1ccccc1)C(N)=O)C(C)C)C(C)C)[C@@H](C)CC [SEQ ID NO: 33, [Nle^8, Aib^13, β-hIle^18,1-Nal^23, Leu^27] hPTH (1-34)-NH2] (H-SVSEIQL[Nle]HNLG[Aib]HLNS[β3hI]ERVE[1Nal]LRKLLQDVHNF-NH2) | 140 pM | 481 | 
6 | CCCC[C@H](NC(=O)[C@H](CC(C)C)NC(=O)[C@H](CCC(N)=O)NC(=O)[C@@H](NC(=O)[C@H](CCC(=O)O)NC(=O)[C@H](CO)NC(=O)[C@@H](NC(=O)[C@@H](N)CO)C(C)C)[C@@H](C)CC)C(=O)N[C@@H](Cc1c[nH]cn1)C(=O)N[C@@H](CC(N)=O)C(=O)N[C@@H](CC(C)C)C(=O)NCC(=O)N[C@@H](CCCCN)C(=O)N[C@@H](Cc1c[nH]cn1)C(=O)N[C@@H](CC(C)C)C(=O)N[C@@H](CC(N)=O)C(=O)N[C@@H](CO)C(=O)N[C@H](CC(=O)N[C@@H](CCC(=O)O)C(=O)N[C@@H](CCCNC(=N)N)C(=O)N[C@H](C(=O)N[C@@H](CCC(=O)O)C(=O)N[C@@H](Cc1cccc2ccccc12)C(=O)N[C@@H](CC(C)C)C(=O)N[C@@H](CCCNC(=N)N)C(=O)N[C@@H](CCCCN)C(=O)N[C@@H](CC(C)C)C(=O)N[C@@H](CC(C)C)C(=O)N[C@@H](CCC(N)=O)C(=O)N[C@@H](CC(=O)O)C(=O)N[C@H](C(=O)N[C@@H](Cc1c[nH]cn1)C(=O)N[C@@H](CC(N)=O)C(=O)N[C@@H](CCC(=O)O)C(N)=O)C(C)C)C(C)C)[C@@H](C)CC [SEQ ID NO: 29, [Nle^8, β-hIle^18,1-Nal^23, Leu^27, Glu^34] hPTH (1-34)-NH2] (H-SVSEIQL[Nle]HNLGKHLNS[β3hI]ERVE[1Nal]LRKLLQDVHNE-NH2; N-terminus assumed) | 120 pM | 474 | 
